Assay [1] concerns Glukosidasen. The note with it: known from Angew. Chem. 93, 738 (1981); cited from earlier work.
Assay [2] concerns Glykoproteinen. The experiment in a line: Effect on half-life of glycoproteins. As to conditions: qualitative statement, no value given.
Assay [3] concerns the target α-N-Acetyl-galaktosaminidase. The experiment in a line: Inhibition of α-N-acetylgalactosaminidase. The class given is biochemical. The note with it: α-N-Acetyl-galaktosaminidase aus Charonia lampas; read-out: IC₅₀.
Assay [4] has as its system UDP-gal NAc: polypeptid-α-N-acetylgalaktosaminyl-transferase. Kind of assay: Inhibition of polypeptide α-N-acetylgalactosaminyl transferase activity. The class given is biochemical. The note with it: qualitative statement, no value given.

Take `OC[C@H]1NC[C@H](O)[C@@H](O)[C@@H]1O` [1-Desoxynojirimycin]: in assay [1], the “Hemmwirkung auf Glukosidasen” value is given as “Hemmwirkung”.

Consider `CC(=O)N[C@H]1CN[C@H](CO)[C@H](O)[C@@H]1O` [If, 2-N-Acetyl-1,2,5-tridesoxy-1,5-imino-D-galaktit], for which, in assay [2], the “Halbwertszeit von Glykoproteinen” value is “erhöht”. For the same compound, the IC50 in assay [3] is 1400 nM. Further, the “Aktivität der UDP-gal NAc: polypeptid-α-N-acetylgalaktosaminyl-transferase” value in assay [4] was “inhibiert”.
